Experimental findings from patent publication US10377770B2 (Novartis AG, priority 2015, dated 2019) are described below.

For this assay, the target named is C-Raf FL (full length CRAF with Y340E and Y341E activating mutations, co-expressed with h14-3-3 zeta) (Homo sapiens (Human), UniProt P04049, Y340E/Y341E). As to the kind of experiment: In vitro Raf activity determination, AlphaScreen p-MEK readout, c-Raf (C-Raf FL). It counts as biochemical. The conditions noted are these: c-Raf approximately 4 nM, ATP 1 μM, pre-incubation 60 minutes, reaction 1 hour. The method, boiled down:
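Full-length C-Raf (~4 nM) pre-incubated 60 min at room temperature with compound and kinase-dead biotinylated MEK1 (~10 nM) in Tris pH 7.5, 15 mM MgCl2, BSA, DTT. Reaction started with 1 μM ATP and run 1 h at room temperature. Phospho-MEK detected by AlphaScreen with anti-p-MEK antibody.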
(In general: Alpha assays give light when donor and acceptor beads are brought close together.)

Take `CCN1C[C@H]2COCCN2c2cc(-c3cc(NC(=O)c4cccc(C(F)(F)F)c4)cnc3C)cnc2C1=O` [Example 497, (S)-N-(5-(6-ethyl-7-oxo-1,2,4a,5,6,7-hexahydro-4H-[1,4]oxazino[4,3-a]pyrido[2,3-f][1,4]diazepin-10-yl)-6-methylpyridin-3-yl)-3-(trifluoromethyl) benzamide]: the IC50 (usually the concentration at which inhibition is half-maximal) was determined as 1.4 nM.

Compound `Cc1ncc(NC(=O)c2cccc(C(C)(F)F)c2)cc1-c1ccc2c(c1)N1CCOC[C@@H]1[C@@](F)(CO)C2` [Example 368, 3-(1,1-difluoroethyl)-N-(5-((4aR,5R)-5-fluoro-5-(hydroxymethyl)-1,2,4,4a,5,6-hexahydro-[1,4]oxazino[4,3-a]quinolin-9-yl)-6-methylpyridin-3-yl)benzamide] yielded an IC50 of 0.1 nM. The compound `Cc1ccc(NC(=O)c2ccnc(C(C)(F)F)c2)cc1-c1cnc2c(c1)N1CCOCC1C(CO)(CO)C2` (racemic) [Example 158, rac-N-(3-(5,5-bis(hydroxymethyl)-yl)-1,2,4,4a,5,6-hexahydro-[1,4]oxazino[4,3-a][1,5]naphthyridin-9-yl)-4-methylphenyl)-2-(1,1-difluoroethyl)isonicotinamide] came in with an IC50 of 0.01 nM. This IC50 lies about 10-fold lower than the previous one.

The compound `Cc1ccc(NC(=O)c2ccnc(C(F)(F)F)c2)cc1-c1cnc2c(c1)N1CCOCC1CC2N` (racemic) [Example 171, rac-N-(3-(6-amino-1,2,4,4a,5,6-hexahydro-[1,4]oxazino[4,3-a][1,5]naphthyridin-9-yl)-4-methylphenyl)-2-(trifluoromethyl)isonicotinamide] registered an IC50 of 0.019 nM. The figure for `CCN1C(=O)C2COCCN2c2cc(-c3cc(NC(=O)c4ccnc(C(F)(F)F)c4)ccc3C)cnc21` (stereo in doubt) [Example 114, (S)-N-(3-(6-Ethyl-5-oxo-1,2,4,4a,5,6-hexahydropyrido[2′,3′:5,6]pyrazino[2,1-c][1,4]oxazin-9-yl)-4-methylphenyl)-2-(trifluoromethyl)isonicotinamide] is 0.07 nM; for `Cc1ccc(NC(=O)c2cncc(C(F)(F)F)c2)cc1-c1cnc2c(c1)N1CCOC[C@H]1C[C@H]2O` [Example 145, N-(3-((4aR,6R)-6-hydroxy-1,2,4,4a,5,6-hexahydro-[1,4]oxazino[4,3-a][1,5]naphthyridin-9-yl)-4-methylphenyl)-5-(trifluoromethyl)nicotinamide] it is 0.017 nM.

`CCN1C(=O)C2COCCC2(C)c2cc(-c3cc(NC(=O)c4ccnc(C(F)(F)F)c4F)ccc3C)cnc21` (stereo not drawn) [Example 347, N-(3-((4a,10b- trans)-6-ethyl-10b-methyl-5-oxo-2,4,4a.5,6,10b-hexahydro-1H-pyrano[3,4-c][1,8]naphthyridin-9-yl)-4-methylphenyl)-3-fluoro-2-(trifluoromethyl) isonicotinamide] had an IC50 of 0.3 nM. Compared with the last compound, the IC50 is about 18-fold higher. “N-(3-(8-(2- hydroxyethyl)-7- oxo- 1,2,4,5,5a,6,7,8- octahydropyrido[3′, 2′:2,3][1,4]diazepino [1,7- d][1,4]oxazepin- 11-yl)-4- methylphenyl)-2- (trifluoromethyl) isonicotinamide [Example 320]” came in with a half-inhibitory concentration (IC50) of 0.8 nM.

On to `Cc1ccc(NC(=O)c2ccnc(C(C)(F)F)c2)cc1-c1cnc2c(c1)N1CCOC[C@H]1C[C@]2(C)O` (racemic) [Example 42, (rac)-(cis)-2-(1,1-difluoroethyl)-N-(3-(6-hydroxy-6-methyl-1,2,4,4a,5,6-hexahydro-[1,4]oxazino[4,3-a][1,5]naphthyridin-9-yl)-4-methylphenyl)isonicotinamide], for which the concentration for half-maximal inhibition (IC50) was 0.015 nM.

Take `CCN1C(=O)[C@H]2[C@@H]3COC[C@@H]3[C@H]2c2cc(-c3cc(NC(=O)c4cncc(C(F)(F)F)c4)ccc3C)cnc21` [Example 277, N-(3-((6aR, 6bR, 9aR, 9bR)-5-ethyl-6-oxo-5,6,6a,6b,7,9,9a,9b-octahydrofuro[3′,4′: 3,4]cyclobuta[1,2-c][1,8]naphthyridin-2-yl)-4-methylphenyl)-5-(trifluoromethyl) nicotinamide]: inhibition was half-maximal at 0.1 nM (IC50). The figure for `Cc1ccc(NC(=O)c2ccnc(C(C)(F)F)c2)cc1-c1ccc2c(c1)N1CCOCC1CC2O` (racemic) [Example 6, (rac)-2-(1,1-difluoroethyl)-N-(3-(6-hydroxy-1,2,4,4a,5,6-hexahydro-[1,4]oxazino[4,3-a]quinolin-9-yl)-4-methylphenyl)isonicotinamide] is 0.076 nM.

For the compound `Cc1ccc(NC(=O)c2ccnc(C(C)(F)F)c2)cc1-c1cnc2c(c1)N1CCOC[C@@H]1[C@@H](C(C)(C)O)C2` [Example 459, 2-(1,1-difluoroethyl)-N-(3-((4aS,5S)-5-(2-hydroxypropan-2-yl)-1,2,4,4a,5,6-hexahydro-[1,4]oxazino[4,3-a][1,5]naphthyridin-9-yl)-4-methylphenyl) isonicotinamide], the IC50 is 0.4 nM. This IC50 is about 5.3-fold higher than that of the compound before. The figure for `CCN1C(=O)[C@H]2COCC[C@@H]2c2cc(-c3cc(NC(=O)c4cccc(C(F)(F)F)c4)cnc3C)cnc21` [Example 309, N-(5-((4aR, 10bS)-6-ethyl-5-oxo-1,4,4a,5,6,10b-hexahydro-2H-pyrano[3,4 - c][1,8]naphthyridin-9-yl)-6-methylpyridin-3-yl)-3-(trifluoromethyl) benzamide] is 0.3 nM; for `Cc1ccc(NC(=O)c2ccnc(C(F)(F)F)c2)cc1-c1ccc2c(c1)N1CCOC[C@H]1[C@](CO)(CF)C2` [Example 408, N-(3-((4aR,5R)-5-(fluoromethyl)-5-(hydroxymethyl)-1,2,4,4a,5,6-hexahydro-[1,4]oxazino[4,3-a]quinolin-9-yl)-4-methylphenyl)-2-(trifluoromethyl)isonicotinamide] it is 0.7 nM; for `Cc1ccc(NC(=O)c2ccnc(C(C)(C)F)c2)cc1-c1cc2c(cc1F)C[C@@](F)(CO)[C@@H]1COCCN21` [Example 483, N-(3-((4aS,5S)-5,8-difluoro-5-(hydroxymethyl)-1,2,4,4a,5,6-hexahydro-[1,4]oxazino[4,3-a]quinolin-9-yl)-4-methylphenyl)-2-(2-fluoropropan-2-yl)isonicotinamide] it is 1 nM. The figure for `CCN1C(=O)[C@@H]2COCC[C@@]2(C)c2cc(-c3cc(NC(=O)c4ccnc(C(F)(F)F)c4)ccc3C)cnc21` (relative stereo) [Example 342, N-(3-((4a,10b-trans)-6-ethyl-10b-methyl-5-oxo-2,4,4a,5,6,10b-hexahydro-1H-pyrano[3,4-c][1,8]naphthyridin-9-yl)-4-methylphenyl)-2-(trifluoromethyl)isonicotinamide] is 0.1 nM. Take `CO[C@@H]1C[C@@H]2COCCN2c2cc(-c3cc(NC(=O)c4ccnc(C(F)(F)F)c4)ccc3C)ccc21` (racemic) [Example 30, (rac)-(trans)-N-(3-(6-methoxy-1,2,4,4a,5,6-hexahydro-[1,4]oxazino[4,3-a]quinolin-9-yl)-4-methylphenyl)-2-(trifluoromethyl)isonicotinamide]: the IC50 was 0.18 nM.

As for `Cc1ccc(NC(=O)c2ccnc(C(F)(F)F)c2)cc1-c1cnc2c(c1)N1CCOC[C@H]1C[C@@]2(C)O` (racemic) [Example 39, (rac)-(trans)-N-(3-(6-hydroxy-6-methyl-1,2,4,4a,5,6-hexahydro-[1,4]oxazino[4,3-a][1,5]naphthyridin-9-yl)-4-methylphenyl)-2-(trifluoromethyl)isonicotinamide], the IC50 came to 0.0023 nM.

`Cc1ccc(NC(=O)c2ccnc(C(C)(F)F)c2)cc1-c1ccc2c(c1)N1CCOC[C@H]1[C@@](F)(CO)C2` [Example 371, 2-(1,1-difluoroethyl)-N-(3-((4aS,5R)-5-fluoro-5-(hydroxymethyl)-1,2,4,4a,5,6-hexahydro-[1,4]oxazino[4,3-a]quinolin-9-yl)-4-methylphenyl)isonicotinamide] gave a concentration for half-maximal inhibition (IC50) of 0.2 nM.

`CCN1C(=O)C2COCCC2(C)c2cc(-c3cc(NC(=O)c4cccc(C(F)(F)F)c4)cnc3C)cnc21` (stereo not drawn) [Example 349, N-(5-((4a,10b- trans)-6-ethyl-10b-methyl-5-oxo-2,4,4a,5,6,10b-hexahydro-1H-pyrano[3,4-c][1,8]naphthyridin-9-yl)-6-methylpyridin-3-yl)-3-(trifluoromethyl) benzamide] displayed an IC50 of 3 nM. `Cc1ncc(NC(=O)c2cccc(C(F)(F)F)c2)cc1-c1ccc2c(c1)N1CCOCC1C(CS(C)(=O)=O)C2` (racemic) [Example 364, (rac)-N-(6-methyl-5-(5-((methylsulfonyl)methyl)-1,2,4,4a,5,6-hexahydro-[1,4]oxazino[4,3-a]quinolin-9-yl)pyridin-3-yl)-3-(trifluoromethyl)benzamide]: the IC50 turned out to be 0.8 nM. With `Cc1ncc(NC(=O)c2cccc(C(F)(F)F)c2)cc1-c1cnc2c(c1)N1CCOC[C@@H]1[C@H](CO)C2` [Example 493, N-(5-((4aS,5R)-5-(hydroxymethyl)-1,2,4,4a,5,6-hexahydro-[1,4]oxazino[4,3-a][1,5]naphthyridin-9-yl)-6-methylpyridin-3-yl)-3-(trifluorometh-yl)benzamide] the figure was 0.1 nM.

Regarding `Cc1ncc(NC(=O)c2cccc(C(F)(F)F)c2)cc1-c1cnc2c(c1)C1(C)CCOCCC1C(=O)N2CCO` (single isomer, unassigned) [Example 359, N-(5-((5a,11b-trans)-7-(2-hydroxyethyl)-11b-methyl-6-oxo-1,2,4,5,5 a,6,7,11b-octahydrooxepino[4,5-c][1,8]naphthyridin-10-yl)-6-methylpyridin-3-yl)-3-(trifluoromethyl)benzamide], the IC50 was determined as 0.3 nM. With `Cc1ccc(NC(=O)c2ccnc(C(C)(F)F)c2)cc1-c1cnc2c(c1)N1CCOC[C@@H]1[C@H](C(C)(C)O)C2` [Example 450, 2-(1,1-difluoroethyl)-N-(3-((4aS,5R)-5-(2-hydroxypropan-2-yl)-1,2,4,4a,5,6-hexahydro-[1,4]oxazino[4,3-a][1,5]naphthyridin-9-yl)-4-methylphenyl) isonicotinamide] the figure was 0.2 nM.
